Experiments:
Test in all cases: preemergence treatment in the greenhouse, % damage
[1] = test system: Amar. retro.; assay type: in vivo
Excerpt: (§1) The vessels employed were plastic flowerpots having a volume of 300 cm^3; the substrate was a sandy loam containing about 1.5% humus. The seeds of the test plants (see Table 1) were sown shallow, and separated according to species. In the case of Cyperus esculentus, pregerminated tubers were planted. In the preemergence treatment, the active ingredients were then immediately applied to the surface of the soil. They were suspended or emulsified in water as the vehicle, and sprayed through atomizing nozzles. After the agents had been applied, the vessels were lightly sprinkler-irrigated to set germination and growth going, and to activate the chemical agents. The vessels were then covered with transparent plastic hoods until the plants had taken root. This cover ensured uniform germination of the test plants (to the extent that this was not impaired by the chemicals), and prevented readily volatile substances from evaporating.
(§2) For postemergence treatment, the plants were first grown to a height of from 3 to 10 cm, depending on their habit, before treated. Hoods were not placed on the pots. The experiments were set up in the greenhouse, hotter areas (25° to 40° C.) being preferred for heat-loving species, and 15° to 30° C. for plants from moderate climates. The experiments were carried out for from 4 to 6 weeks. During this period the plants were tended and their reaction to the various treatments was assessed. The following tables contain the substances investigated, the application rates in kg/ha of active ingredient, and the test plant species. Assessments were made on a 0 to 100 scale, 0 denoting no damage or normal emergence, and 100 denoting no emergence or complete destruction of at least the visible plant parts.

[2] = test system: Echin. c.g.; assay type: in vivo
Excerpt: as §1, §2

[3] = test system: Alopec. myosur.; assay type: in vivo
Excerpt: as §1, §2

[4] = test system: Sorgh. halep.; assay type: in vivo
Excerpt: as §1, §2

[5] = test system: Setaria spp.; assay type: in vivo
Excerpt: as §1, §2

[6] = test system: Cyp. diff.; assay type: in vivo
Excerpt: as §1, §2

[7] = test system: Bromus spp.; assay type: in vivo
Excerpt: as §1, §2

[8] = test system: Glyc. max; assay type: in vivo, Glycine max
Excerpt: as §1, §2

[9] = test system: Matric. spp.; assay type: in vivo
Excerpt: as §1, §2

[10] = test system: Beta vulg.; assay type: in vivo, Beta vulgaris
Excerpt: as §1, §2

SMILES	% damage ([1]; 2.0 kg/ha)	% damage ([2]; 2.0 kg/ha)	% damage ([6]; 2.0 kg/ha)	% damage ([3]; 2.0 kg/ha)	% damage ([4]; 2.0 kg/ha)	% damage ([5]; 2.0 kg/ha)	further results
CCc1ccccc1N(Cn1nc(C)cc1C)C(=O)CCl [Compound 36]							% damage ([1]; 0.5 kg/ha): 95%; % damage ([1]; 1.0 kg/ha): 95%; % damage ([2]; 0.5 kg/ha): 80%; % damage ([2]; 1.0 kg/ha): 95%; % damage ([3]; 0.5 kg/ha): 90%; % damage ([3]; 1.0 kg/ha): 100%; % damage ([4]; 0.5 kg/ha): 40%; % damage ([4]; 1.0 kg/ha): 40%; % damage ([5]; 0.5 kg/ha): 90%; % damage ([5]; 1.0 kg/ha): 95%
CCc1cccc(CC)c1N(Cn1nc(C)nc1C)C(=O)CCl [Compound 162]	100%	100%	100%	95%	95%	100%	
Cc1ccn(CN(C(=O)CCl)c2c(C)cccc2C)n1 [Compound 67]							% damage ([7]; 0.25 kg/ha): 100%; % damage ([1]; 0.25 kg/ha): 100%; % damage ([4]; 0.25 kg/ha): 95%
CCc1cccc(CC)c1N(Cn1ccc(C)n1)C(=O)CCl [Compound 70]							% damage ([7]; 0.25 kg/ha): 100%; % damage ([1]; 0.25 kg/ha): 100%; % damage ([4]; 0.25 kg/ha): 75%
Cc1cccc(C(C)C)c1N(Cn1cccn1)C(=O)CCl [Compound 9]	100%	100%	100%	100%	90%	100%	
Cc1ccc(C)c(N(Cn2nc(C)cc2C)C(=O)CCl)c1 [Compound 52]	100%	95%	100%	60%	60%	90%	
Cc1cc(C)n(CN(C(=O)CCl)c2cccc(C)c2C)n1 [Compound 50]							% damage ([1]; 1.0 kg/ha): 100%; % damage ([2]; 1.0 kg/ha): 100%; % damage ([6]; 1.0 kg/ha): 100%; % damage ([3]; 1.0 kg/ha): 90%; % damage ([4]; 1.0 kg/ha): 70%; % damage ([5]; 1.0 kg/ha): 100%
CC(C)c1cccc(C(C)C)c1N(Cn1cccn1)C(=O)CCl [Compound 11]	90%	100%	100%	90%	70%	80%	
Cc1cccc(C(C)C)c1N(Cn1cncn1)C(=O)CCl [Compound 131]	80%	100%	100%	70%	80%	100%	
CC(C)c1ccccc1N(Cn1cccn1)C(=O)CCl [Compound 4]	95%	100%	90%	95%	65%	90%	
Cc1cccc(N(Cn2cccn2)C(=O)CCl)c1C [Compound 17]	90%	100%	100%	50%	75%	90%	
Cc1cc(C)c(N(Cn2cccn2)C(=O)CCl)c(C)c1 [Compound 13]	100%	100%	90%	80%	80%	90%	
Cc1cccc(C)c1N(Cn1cc(Cl)cn1)C(=O)CCl		100%		100%		100%	% damage ([8]; 1.0 kg/ha): 5%; % damage ([8]; 2.0 kg/ha): 20%; % damage ([7]; 1.0 kg/ha): 92%; % damage ([7]; 2.0 kg/ha): 95%; % damage ([9]; 1.0 kg/ha): 75%; % damage ([9]; 2.0 kg/ha): 80%; % damage ([2]; 1.0 kg/ha): 100%; % damage ([3]; 1.0 kg/ha): 95%; % damage ([5]; 1.0 kg/ha): 95%; % damage ([10]; 1.0 kg/ha): 3%; % damage ([10]; 2.0 kg/ha): 13%

From patent publication US4593104A, “2-halo-N-(azole-1-yl-methyl)-substituted acetanilides” (BASF Aktiengesellschaft, priority 1976, dated 1986)
